These results are taken from US4916141A, “(S)-7-(3-amino-1-pyrrolidinyl)-1-cyclop ropyl-6-fluoro-1,4-dihydro-4-oxo-1,8-naphthyridine-3-carboxylic acid” (Warner-Lambert Company, priority 1989, dated 1990).

The subject of test [1] is Streptococcus pyogenes C-203. The test can be described thus: microtitration dilution MIC. The class given is cell-based. Conditions: C203, read-out: minimum inhibitory concentration (MIC). The text has this:
(§1) The compounds of the invention display antibacterial activity when tested by the microtitration dilution method as described in Heifetz, et al, […]. Agents and Chemot. 6, 124 (1974), which is incorporated herein by reference. […] Pat. No. 4,649,144.

The next test relates to Proteus rettgeri M 1771. The test is described as follows: microtitration dilution MIC. The class given is cell-based. The settings on record: Providencia rettgeri, M1771, read-out: minimum inhibitory concentration (MIC).
Text: as §1

For test [2], the system named is Pseudomonas aeruginosa UI-18. The test is described as follows: microtitration dilution MIC. The class given is cell-based. Conditions: UI18, read-out: minimum inhibitory concentration (MIC).
Text: as §1

Test [3] has as its system Staphylococcus aureus UC-76. The test is described as follows: microtitration dilution MIC. The class given is cell-based. Conditions: UC76, read-out: minimum inhibitory concentration (MIC).
Text: as §1

Test [4] deals with Staphylococcus aureus H 228. The test is described as follows: microtitration dilution MIC. The class given is cell-based. Conditions: H228, read-out: minimum inhibitory concentration (MIC).
Text: as §1

Test [5] concerns Klebsiella pneumoniae MGH-2. The test can be described thus: microtitration dilution MIC. The class given is cell-based. Conditions: MGH2, read-out: minimum inhibitory concentration (MIC).
Text: as §1

Test [6] has as its system Escherichia coli Vogel. The test can be described thus: microtitration dilution MIC. The class given is cell-based. The settings on record: read-out: minimum inhibitory concentration (MIC).
Text: as §1

Test [7] has as its system Staphylococcus faecalis MGH-2. The test is described as follows: microtitration dilution MIC. The class given is cell-based. Conditions: MGH2, read-out: minimum inhibitory concentration (MIC).
Text: as §1

The test system of test [8] is Enterobacter cloacae MA 2646. The test can be described thus: microtitration dilution MIC. Conditions: MA2646, read-out: minimum inhibitory concentration (MIC). The class given is cell-based.
Text: as §1

Test [9] relates to Streptococcus pneumoniae SV-1. The test can be described thus: microtitration dilution MIC. The class given is cell-based. Conditions: SV1, read-out: minimum inhibitory concentration (MIC).
Text: as §1

Test [10] relates to Escherichia coli Vogel. The test can be described thus: acute mouse protection test (PD50). Conditions: for median protective dose (PD50) P.O.: oral; for median protective dose (PD50) S.C.: subcutaneous. The class given is in vivo, mouse (female Charles River CD-1). The procedure: (§2) The in vivo experiments on the bacteria named are expressed in terms of median protective doses (PD50) on the test animals to which the compounds were administered orally and subcutaneously. The measurement of PDso was carried out according to the following procedure:
(§3) Therapeutic activities of the compounds were compared in acute mouse protection tests in which 18-22 g female Charles River CD-1 mice were used. Oral and subcutaneous doses in twofold rising incremental series were administered concurrently with bacterial challenge. Challenges were accomplished by the intraperitoneal injection of an estimated 100 median lethal doses in 0.5 ml volumes of 5% hog gastric mucin or tryptic soy broth. Generally, greater than 90% of the untreated controls died within 48-72 hours. Final survival percentages, obtained after 4-7 days of observation among groups of 8-16 mice, were used to estimate median protective doses (PD50) by the log-probit method.

Test [11] relates to Staphylococcus faecalis MGH-2. The test is described as follows: acute mouse protection test (PD50). The settings on record: for median protective dose (PD50) P.O.: oral; for median protective dose (PD50) S.C.: subcutaneous. The class given is in vivo, mouse (female Charles River CD-1). As for the experimental part: as §2, §3
For test [12], the system named is Pseudomonas aeruginosa UI-18. The test can be described thus: acute mouse protection test (PD50). The settings on record: for median protective dose (PD50) P.O.: oral; for median protective dose (PD50) S.C.: subcutaneous. The class given is in vivo, mouse (female Charles River CD-1). As for the experimental part: as §2, §3
The subject of test [13] is Streptococcus pneumoniae SV-1. The test can be described thus: acute mouse protection test (PD50). The class given is in vivo, mouse (female Charles River CD-1). Conditions: for median protective dose (PD50) P.O.: oral; for median protective dose (PD50) S.C.: subcutaneous. As for the experimental part: as §2, §3
Test [14] concerns gram-positive and gram-negative bacteria. The test is described as follows: antibacterial activity in vitro and in vivo (summary statement). The settings on record: in vitro as well as in vivo.
Text: The compounds of the invention display antibacterial activity when tested by the microtitration dilution method as described in Heifetz, et al, Antimicr. Agents and Chemot. 6, 124 (1974), which is incorporated herein by reference. By the use of the above reference method, the following minimum inhibitory concentration values (MICs in μg/ml) were obtained for the compound of the present invention, (S)-7-(3-amino-1-pyrrolidinyl)-1-cyclopropyl-6-fluoro-1,4-dihydro-4-oxo-1,8-naphthyridine-3-carboxylic acid, the corresponding (R) isomer and the racemic compound as described in U.S. Pat. No. 4,649,144.
as §2
Therapeutic activities of the compounds were compared in acute mouse protection tests in which 18-22 g female Charles River CD-1 mice were used. Oral and subcutaneous doses in twofold rising incremental series were administered concurrently with bacterial challenge. Challenges were accomplished by the intraperitoneal injection of an estimated 100 median lethal doses in 0.5 ml volumes of 5% hog gastric mucin or tryptic soy broth. Generally, greater than 90% of the untreated controls died within 48-72 hours. […]

Values after ≈ are worked out from the molar mass of the structure shown. Counter-ions that a name gives are not always drawn.

For the molecule `N[C@@H]1CCN(c2nc3c(cc2F)c(=O)c(C(=O)O)cn3C2CC2)C1` ["R" Isomer, (R)-7-(3-Amino-1-pyrrolidinyl)-1-cyclopropyl)-6-fluoro-1,4-dihydro-4-oxo-1,8-naphthyridine-3carboxylic acid hydrochloride], the MIC in test [1] worked out at 0.2 µg/mL; in the test on Proteus rettgeri M 1771 it was 0.05 µg/mL; in test [2] it was 0.4 µg/mL; in test [3] it was 0.05 µg/mL; in test [4], 0.2 µg/mL; in [5] it was 0.025 µg/mL. Moreover, the MIC in the test on Escherichia coli Vogel [6] is 0.013 µg/mL; in [7], 0.2 µg/mL; in test [8], 0.025 µg/mL; in [9], 0.1 µg/mL. The “median protective dose (PD50) P.O.” value was determined as 0.51 with Escherichia coli Vogel [10] and 45 in test [11]. In addition, the “median protective dose (PD50) S.C.” value in the test with Escherichia coli Vogel [10] is 0.35; in test [11], 34.
As for `NC1CCN(c2nc3c(cc2F)c(=O)c(C(=O)O)cn3C2CC2)C1` (racemic) [Racemic, 7-(3-amino-1-pyrrolidinyl)-1-Cyclopropyl-6-fluoro-1,4-dihydro-4-oxo-1,8-naphthyridine-3-carboxylic acid], the MIC in [1] stood at 0.2 µg/mL (≈ 0.602 µM); in the test with Proteus rettgeri M 1771, 0.1 µg/mL (≈ 0.301 µM); in [2] it was 0.05 µg/mL (≈ 0.15 µM); in test [3], 0.013 µg/mL (≈ 0.0391 µM); in [4], 0.2 µg/mL (≈ 0.602 µM); in [5], 0.025 µg/mL (≈ 0.0752 µM). Moreover, the MIC in the test with Escherichia coli Vogel [6] was 0.013 µg/mL (≈ 0.0391 µM); in test [7], 0.2 µg/mL (≈ 0.602 µM); in [8], 0.025 µg/mL (≈ 0.0752 µM); in test [9], 0.2 µg/mL (≈ 0.602 µM). Moreover, the “median protective dose (PD50) P.O.” value in test [12] was 7.3; in the test with Escherichia coli Vogel [10] it was 2.0; in test [11], 58; in [13], 32. Also, the “median protective dose (PD50) S.C.” value in test [12] is listed as 3.2; with Escherichia coli Vogel [10], 0.6; in test [11] it was 33; in test [13], 14.
For the molecule `N[C@H]1CCN(c2nc3c(cc2F)c(=O)c(C(=O)O)cn3C2CC2)C1` ["S" Isomer, (S)-7-(3-Amino-1-pyrrolidinyl)-1-cyclopropyl-6-fluoro-1,4-dihydro-4-oxo-1,8-naphthyridine-3-carboxylic acid], the “antibacterial activity compared with R isomer and racemic compound” value in test [14] is “not only better than its opposite R isomer but also better than the racemic compound”; in test [14] (listed as S form), “significantly better activity against both gram-positive and gram-negative bacteria in vitro as well as in vivo”. Besides, the MIC in test [1] is 0.05 µg/mL (≈ 0.15 µM); in the test with Proteus rettgeri M 1771, 0.025 µg/mL (≈ 0.0752 µM); in [2], 0.1 µg/mL (≈ 0.301 µM); in [3], 0.013 µg/mL (≈ 0.0391 µM); in [4], 0.05 µg/mL (≈ 0.15 µM); in test [5] it was 0.013 µg/mL (≈ 0.0391 µM). Further, the MIC in the test on Escherichia coli Vogel [6] worked out at 0.006 µg/mL (≈ 0.0181 µM); in [7] it was 0.1 µg/mL (≈ 0.301 µM); in test [8], 0.013 µg/mL (≈ 0.0391 µM); in test [9] it was 0.05 µg/mL (≈ 0.15 µM). Moreover, the “median protective dose (PD50) P.O.” value in [12] amounted to 3.5; with Escherichia coli Vogel [10], 0.7; in [11] it was 19; in test [13], 19. The “median protective dose (PD50) S.C.” value in test [12] is on record as 2.1; in the test with Escherichia coli Vogel [10], 0.35; in [11], 14; in test [13] it was 9.
